From patent publication US11236086B2, “Substituted pyrrolopyridines as inhibitors of activin receptor-like kinase” (BLUEPRINT MEDICINES CORPORATION, priority 2017, dated 2022) come the findings set out here.

The target in assay [1] is T1, ALK2R206H (mutant ALK2, N-terminally tagged with GST) (Homo sapiens, UniProt Q04771, R206H).
T1 construct: purchased Carna Bioscience or ThermoFisher 09-148 or PV6232
T1 sequence (Q04771 21-509 R206H): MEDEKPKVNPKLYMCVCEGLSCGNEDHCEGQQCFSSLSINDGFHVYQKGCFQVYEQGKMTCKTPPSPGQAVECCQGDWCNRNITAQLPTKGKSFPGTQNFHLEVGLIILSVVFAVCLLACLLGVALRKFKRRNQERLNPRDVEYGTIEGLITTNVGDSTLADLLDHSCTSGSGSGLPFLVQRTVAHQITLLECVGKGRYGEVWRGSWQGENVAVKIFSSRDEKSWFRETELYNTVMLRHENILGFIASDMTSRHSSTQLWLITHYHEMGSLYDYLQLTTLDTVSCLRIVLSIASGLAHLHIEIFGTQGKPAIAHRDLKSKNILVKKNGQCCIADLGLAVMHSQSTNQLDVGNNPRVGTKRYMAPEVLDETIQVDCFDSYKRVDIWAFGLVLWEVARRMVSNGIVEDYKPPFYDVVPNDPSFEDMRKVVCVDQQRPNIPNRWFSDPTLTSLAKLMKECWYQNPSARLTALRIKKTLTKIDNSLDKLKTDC
Nature of the assay: ALK binding assay (LANTHASCREEN TR-FRET competitive binding, displacement of Kinase Tracer 178). The note with it: read-out: Binding Assay (IC50 class). A digest of the protocol: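 GST-tagged ALK2 R206H (2-5 nM) mixed with Eu-anti-GST antibody (4-10 nM), Kinase Tracer 178 (50 nM, near its Kd) and compound titration (1% DMSO) in Kinase Buffer A, 30 min at room temperature. Tracer displacement read as TR-FRET ratio, normalized to controls; IC50 from 4-parameter fit.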
A general note: TR-FRET usually uses a lanthanide donor and a delayed reading to cut background.

The target of assay [2] is T2, human ALK2 R206H (Homo sapiens, UniProt Q04771, R206H).
T2 construct: expressed in transfected cells; host or cells: HEK293 (ATCC CRL1573), lentivirus transduction, blasticidin selection
T2 sequence (Q04771 21-509 R206H): T1 sequence (Q04771 21-509 R206H)
Nature of the assay: Cell-based ALK2-R206H cell activity assay (Smad1-Ser463/Ser465 phosphorylation by AlphaLISA in HEK293-ALK2-R206H cells). The note with it: phospho-Smad1 AlphaLISA, read-out: Cell Line (Cell Assay, IC50 class). A digest of the protocol:
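HEK293 stable line expressing human ALK2 R206H with C-terminal FLAG, plated overnight in serum-free medium. Cells were treated 2-3 h with compound over 10 3-fold doses, top 10 μM or 1 μM, in duplicate. Phospho-Smad1 Ser463/465 in lysate was read by AlphaLISA; IC50 was normalised to DMSO (0%) and 1 μM LDN193189 (100%).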

One may read the IC50 as the midpoint of a concentration-inhibition curve. Consider `O=C(C1CC1)N1CCN(c2ccnc3[nH]c(-c4ccc(C5CCOC5)cc4)cc23)CC1` (centres unmarked) [Compound 270], for which the IC50 was at most 0.01 µM in assay [1] and at most 0.1 µM in assay [2].
On to `Cc1nc(-c2cc3c(N4CCN(C(=O)O[C@H]5CC(F)(F)C5(F)F)CC4)ccnc3[nH]2)cn1C` [Compound 432], for which the concentration for half-maximal inhibition (IC50) in assay [1] is at most 0.01 µM; in assay [2], at most 0.1 µM.
On to `Cc1nn(C(C)C)cc1-c1cc2c(N3CCN(C(=O)[C@H]4CC[C@H](C#N)CC4)CC3)ccnc2[nH]1` [Compound 422], for which the IC50 was at most 0.01 µM in assay [1] and at most 0.1 µM in assay [2].
The matching figures for `C[Si](C)(O)c1ccc(-c2cc3c(N4CCN(C(=O)C5CC5)CC4)ccnc3[nH]2)cc1` [Compound 287]: at most 0.01 µM and 0.1 to 0.5 µM.
With `Cc1nc(-c2cc3c(N4CCN(C(=O)O[C@H]5C[C@H](F)C5)CC4)ccnc3[nH]2)sc1C` [Compound 323], the IC50 in assay [1] was at most 0.01 µM; in assay [2], at most 0.1 µM.
Take `CC(C)(C#N)c1ccc(-c2cc3c(N4CCN(C(=O)OC5COC5)CC4)ccnc3[nH]2)nc1` [Compound 383]: the half-inhibitory concentration (IC50) in assay [1] is at most 0.01 µM; in assay [2], at most 0.1 µM.
As to `Cn1cc(-c2cc3c(N4CCN(C(=O)OCC5COC5)CC4)ccnc3[nH]2)cn1` [Compound 153], the IC50 in assay [1] was at most 0.01 µM; in assay [2] it was 0.1 to 0.5 µM.
The matching figures for `CCOC(=O)N1CCN(c2ccnc3[nH]c(-c4ccc([C@@]5(O)CCOC5)cc4)cc23)CC1` [Compound 355]: at most 0.01 µM and at most 0.1 µM.
As to `CC(C)(C#N)c1ccc(-c2cc3c(N4CCN(C(=O)C5CC5)CC4)ccnc3[nH]2)cc1` [Compound 252], the values for the IC50 in assay [1] and in assay [2] were at most 0.01 µM and at most 0.1 µM, respectively.
The matching figures for `Cc1nc(-c2[nH]c3nccc(N4CCN(C(=O)OC5CCC5)CC4)c3c2C#N)cs1` [Compound 294]: at most 0.01 µM and at most 0.1 µM.
As to `O=C(C1CC1)N1CCN(c2ccnc3[nH]c(-c4ccc(C5(O)CCOCC5)cc4)cc23)CC1` [Compound 386], the concentration for half-maximal inhibition (IC50) in assay [1] was at most 0.01 µM; in assay [2], at most 0.1 µM.
`Cn1cc(-c2cc3c(N4CCN(C(=O)OC5(C)COC5)CC4)ccnc3[nH]2)cn1` [Compound 152]: the IC50 is at most 0.01 µM in assay [1] and 0.1 to 0.5 µM in assay [2].
The matching figures for `O=C(OC1COC1)N1CCN(c2ccnc3[nH]c(-c4ccc(C5(O)CCOCC5)cn4)cc23)CC1` [Compound 446]: at most 0.01 µM and at most 0.1 µM.
Regarding `O=C(C1CC1)N1CCN(c2ccnc3[nH]c(-c4cnn(C5CCCC5)c4)cc23)CC1` [Compound 197], the IC50 in assay [1] was at most 0.01 µM; in assay [2], at most 0.1 µM.
As to `COC1CC(OC(=O)N2CCN(c3ccnc4[nH]c(-c5cnn(C)c5)cc34)CC2)C1` (centres unmarked) [Compound 233], the IC50 was at most 0.01 µM in assay [1] and 0.1 to 0.5 µM in assay [2].
The matching figures for `O=C(OC1COC1)N1CCN(c2ccnc3[nH]c(-c4cn(C5CCOCC5)cn4)cc23)CC1` [Compound 403]: at most 0.01 µM and at most 0.1 µM.
In the case of `Cn1cc(-c2cc3c(N4CCN(C(=O)O[C@H]5C[C@H](F)C5)CC4)ccnc3[nH]2)cn1` [Compound 162], the figures for the 50% inhibitory concentration (IC50) in assay [1] and in assay [2] were at most 0.01 µM and at most 0.1 µM, respectively.
The matching figures for `CCOC(=O)N1CCN(c2ccnc3[nH]c(-c4ccc(C5(O)CCOCC5)cc4C#N)cc23)CC1` [Compound 441]: at most 0.01 µM and at most 0.1 µM.
Take `Cn1cc(-c2cc3c(N4CCN(C(=O)[C@H]5C[C@H](C#N)C5)CC4)ccnc3[nH]2)cn1` [Compound 123]: the 50% inhibitory concentration (IC50) was at most 0.01 µM in assay [1] and 0.1 to 0.5 µM in assay [2].
Consider `Cn1cc(-c2[nH]c3nccc(N4CCN(C(=O)C5CC5)CC4)c3c2C#N)cn1` [Compound 55], for which the IC50 in assay [1] is at most 0.01 µM; in assay [2] it was 0.1 to 0.5 µM.
`O=C(OC1COC1)N1CCN(c2ccnc3[nH]c(-c4ccc(C5(O)CCC5)cc4)cc23)CC1` [Compound 392]: the IC50 in assay [1] was at most 0.01 µM; in assay [2], at most 0.1 µM.
The matching figures for `Cc1c(-c2cc3c(N4CCN(C(=O)[C@H]5CC[C@H](C#N)CC5)CC4)ccnc3[nH]2)cnn1C(C)C` [Compound 423]: at most 0.01 µM and at most 0.1 µM.
`CCS(=O)(=O)c1ccc(-c2cc3c(N4CCN(C(=O)C5CC5)CC4)ccnc3[nH]2)cc1` [Compound 362]: the IC50 in assay [1] was at most 0.01 µM; in assay [2], at most 0.1 µM.
Consider `Cn1cc(-c2cc3c(N4CCN(C(=O)OC5COC5)CC4)ccnc3[nH]2)cc1C#N` [Compound 203], for which the IC50 was at most 0.01 µM in assay [1] and at most 0.1 µM in assay [2].
In the case of `CCOC(=O)N1CCN(c2ccnc3[nH]c(-c4ccc(C5(O)CCOCC5)cn4)cc23)CC1` [Compound 396], the results for the IC50 in assay [1] and in assay [2] were at most 0.01 µM and at most 0.1 µM, respectively.
On to `CCc1cnc(-c2cc3c(N4CCN(C(=O)OC5COC5)CC4)ccnc3[nH]2)s1` [Compound 249], for which the IC50 in assay [1] is at most 0.01 µM; in assay [2] it was at most 0.1 µM.
The matching figures for `CC(C)n1cnc(-c2[nH]c3nccc(N4CCN(C(=O)OC5COC5)CC4)c3c2C#N)c1` [Compound 350]: at most 0.01 µM and at most 0.1 µM.
Regarding `O=C(OC1COC1)N1CCN(c2ccnc3[nH]c(-c4cn5c(n4)CCC5)cc23)CC1` [Compound 218], the IC50 in assay [1] is at most 0.01 µM; in assay [2], at most 0.1 µM.
The matching figures for `COc1nc(-c2cc3c(N4CCN(C(=O)OC5COC5)CC4)ccnc3[nH]2)cs1` [Compound 259]: at most 0.01 µM and 0.1 to 0.5 µM.
As to `N#CC1(c2ccc(-c3cc4c(N5CCN(C(=O)C6CC6)CC5)ccnc4[nH]3)c(F)c2)CC1` [Compound 322], the IC50 is at most 0.01 µM in assay [1] and at most 0.1 µM in assay [2].
The matching figures for `CCC(C)OC(=O)N1CCN(c2ccnc3[nH]c(-c4cnn(C)c4)cc23)CC1` (centres unmarked) [Compound 98]: at most 0.01 µM and 0.1 to 0.5 µM.
On to `CCOC(=O)N1CCN(c2ccnc3[nH]c(-c4cnn(C(F)F)c4)cc23)CC1` [Compound 125], for which the IC50 in assay [1] was at most 0.01 µM; in assay [2] it was at most 0.1 µM.
The matching figures for `CCOC(=O)N1CCN(c2ccnc3[nH]c(-c4cn(C)nc4C#N)cc23)CC1` [Compound 69]: at most 0.01 µM and at most 0.1 µM.
As for `COC1(c2ccc(-c3cc4c(N5CCN(C(=O)OC6COC6)CC5)ccnc4[nH]3)nc2)CCN(C[C@@H](C)F)CC1` [Compound 479], the IC50 was at most 0.01 µM in assay [1] and at most 0.1 µM in assay [2].
In the case of `CCOc1ccc(-c2cc3c(N4CCN(C(=O)C5CC5)CC4)ccnc3[nH]2)cc1` [Compound 127], the IC50 is 0.01 to 0.05 µM in assay [1] and 0.1 to 0.5 µM in assay [2].
The matching figures for `CC(C)N1CCC(C)(c2ccc(-c3cc4c(N5CCN(C(=O)OC6COC6)CC5)ccnc4[nH]3)cc2)CC1` [Compound 473]: at most 0.01 µM and at most 0.1 µM.
As for `CCOC(=O)N1CCN(c2ccnc3[nH]c(-c4cnn(CC(C)C#N)c4)cc23)CC1` (centres unmarked) [Compound 214], the IC50 is at most 0.01 µM in assay [1] and 0.1 to 0.5 µM in assay [2].
With `Cc1nc(-c2cc3c(N4CCN(C(=O)O[C@H]5C[C@@H](F)C5)CC4)ccnc3[nH]2)cn1C` [Compound 243], the IC50 in assay [1] is at most 0.01 µM; in assay [2] it was at most 0.1 µM.
With `CCN1CCN(c2ccc(-c3cc4c(N5CCN(C(=O)C6CC6)CC5)ccnc4[nH]3)c(F)c2)CC1` [Compound 444], the results for the half-maximal inhibitory concentration (IC50) in assay [1] and in assay [2] were at most 0.01 µM and at most 0.1 µM, respectively.
The matching figures for `Cn1ccc(-c2cc3c(N4CCN(C(=O)OC5COC5)CC4)ccnc3[nH]2)n1` [Compound 91]: at most 0.01 µM and 0.1 to 0.5 µM.
Turning to `Cn1cc(-c2cc3c(N4CCN(C(=O)C5CC5)CC4)ccnc3[nH]2)cn1` [Compound 6], the concentration for half-maximal inhibition (IC50) in assay [1] is at most 0.01 µM; in assay [2], 0.1 to 0.5 µM.
The matching figures for `Cc1nc(-c2cc3c(N4CCN(C(=O)OC5CC5)CC4)ccnc3[nH]2)cs1` [Compound 109]: at most 0.01 µM and at most 0.1 µM.
The matching figures for `CN(C)CCOc1ccc(-c2cc3c(N4CCN(C(=O)C5CC5)CC4)ccnc3[nH]2)cc1` [Compound 343]: at most 0.01 µM and at most 0.1 µM.
The matching figures for `O=C(OC1COC1)N1CCN(c2ccnc3[nH]c(-c4csc(N5CCC(O)CC5)n4)cc23)CC1` [Compound 450]: at most 0.01 µM and 0.1 to 0.5 µM.
In the case of `CC(C)c1cnc(-c2cc3c(N4CCN(C(=O)OC5COC5)CC4)ccnc3[nH]2)s1` [Compound 316], the half-inhibitory concentration (IC50) in assay [1] was at most 0.01 µM; in assay [2] it was at most 0.1 µM.
The matching figures for `CC(C)(C)c1csc(-c2cc3c(N4CCN(C(=O)OC5COC5)CC4)ccnc3[nH]2)n1` [Compound 372]: at most 0.01 µM and at most 0.1 µM.
